Reference: US20250122218A1, “MODULATORS OF CYSTIC FIBROSIS TRANSMEMBRANE CONDUCTANCE REGULATOR” (Vertex Pharmaceuticals Incorporated, priority 2022, published 2025)

The molecules below were run against T1, CFTR in F508del/MF-HBE cells (Homo sapiens, UniProt P13569, DEL508-508) (assay: Ussing chamber assay of CFTR-mediated short-circuit currents (identification of potentiator compounds)). Details: potentiator incubated 18-24 hours at 37° C. in combination with 10 μM corrector, in the presence of 20% human serum, CFTR-mediated ISC.
T1 construct: human bronchial epithelial (HBE) cells derived from CF subjects heterozygous for F508del and a minimal function CFTR mutation; endogenous in cells; host or cells: primary human bronchial epithelial cells from CF subjects (F508del/MF-HBE)
Assay type: cell-based
Outline: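 Short-circuit current was measured in Ussing chambers at 37° C, Vhold 0 mV, 30 μM apical amiloride. CFTR current was defined as the forskolin (20 μM) response relative to the current remaining after BPO/GlyH-101/inhibitor 172 (20 μM each). Before recording, cells had 18-24 h exposure to test potentiators with 10 μM corrector compound in 20% human serum.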

T1 sequence (P13569 with tags, fused parts or gaps DEL508-508): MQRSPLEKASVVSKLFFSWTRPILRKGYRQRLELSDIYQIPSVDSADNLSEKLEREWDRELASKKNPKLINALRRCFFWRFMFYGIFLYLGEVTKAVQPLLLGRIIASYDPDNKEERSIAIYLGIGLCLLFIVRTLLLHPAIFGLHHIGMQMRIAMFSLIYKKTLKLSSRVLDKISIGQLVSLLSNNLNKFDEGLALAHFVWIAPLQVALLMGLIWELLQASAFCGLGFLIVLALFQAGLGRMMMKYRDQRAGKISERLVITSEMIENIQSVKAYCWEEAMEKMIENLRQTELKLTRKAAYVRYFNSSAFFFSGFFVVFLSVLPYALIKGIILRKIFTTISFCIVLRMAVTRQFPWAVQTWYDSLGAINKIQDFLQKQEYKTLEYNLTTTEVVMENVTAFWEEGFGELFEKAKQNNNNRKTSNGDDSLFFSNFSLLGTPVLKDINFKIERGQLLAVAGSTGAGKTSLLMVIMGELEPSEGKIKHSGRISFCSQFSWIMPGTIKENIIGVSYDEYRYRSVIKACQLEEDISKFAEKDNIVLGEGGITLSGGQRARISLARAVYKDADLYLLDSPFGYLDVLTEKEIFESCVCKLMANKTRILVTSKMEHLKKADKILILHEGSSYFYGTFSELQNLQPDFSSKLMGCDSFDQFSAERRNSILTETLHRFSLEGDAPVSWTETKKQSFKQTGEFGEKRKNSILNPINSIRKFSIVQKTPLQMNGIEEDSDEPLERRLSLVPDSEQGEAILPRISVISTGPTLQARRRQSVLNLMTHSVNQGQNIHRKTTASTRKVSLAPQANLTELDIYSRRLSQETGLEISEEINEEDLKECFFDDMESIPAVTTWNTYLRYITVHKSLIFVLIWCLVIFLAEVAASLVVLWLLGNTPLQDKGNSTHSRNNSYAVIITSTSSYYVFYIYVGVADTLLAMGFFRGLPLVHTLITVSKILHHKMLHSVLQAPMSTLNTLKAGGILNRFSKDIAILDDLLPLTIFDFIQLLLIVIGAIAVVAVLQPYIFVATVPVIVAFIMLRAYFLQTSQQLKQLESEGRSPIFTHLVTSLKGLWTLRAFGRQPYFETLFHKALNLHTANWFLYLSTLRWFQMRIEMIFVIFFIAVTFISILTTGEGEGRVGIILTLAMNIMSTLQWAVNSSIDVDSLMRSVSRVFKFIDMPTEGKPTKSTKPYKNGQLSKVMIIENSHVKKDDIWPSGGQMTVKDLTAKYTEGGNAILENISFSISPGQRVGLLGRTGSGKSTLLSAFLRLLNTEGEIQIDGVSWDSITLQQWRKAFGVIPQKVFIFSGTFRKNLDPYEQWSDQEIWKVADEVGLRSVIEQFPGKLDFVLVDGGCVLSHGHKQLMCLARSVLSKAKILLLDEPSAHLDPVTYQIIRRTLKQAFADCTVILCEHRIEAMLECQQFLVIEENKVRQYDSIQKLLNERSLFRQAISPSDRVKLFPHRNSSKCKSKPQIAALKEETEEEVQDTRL

EC50, < 0.5 µM:
Nc1cc(C(F)(F)F)c2nc1-c1nnc(o1)[C@@](O)(C(F)(F)F)CCCCCN(Cc1cccc(C3CC3)c1)C2=O [Compound 231, (6R)-17-amino-12-[(3-cyclopropylphenyl)methyl]-6-hydroxy-6,15-bis(trifluoromethyl)-19-oxa-3,4,12,18-tetrazatricyclo [12.3.1.12,5] nonadeca-1(18),2,4,14,16-pentaen-13-one]
Cn1cc(N2CCCCC[C@](O)(C(F)(F)F)C3=NN=C(O3)c3nc(c(C(F)(F)F)cc3N)C2=O)cn1 [Compound 109, (6R)-17-Amino-6-hydroxy-12-(1-methylpyrazol-4-yl)-6,15-bis (trifluoromethyl)-19-oxa-3,4,12,18-tetrazatricyclo [12.3.1.12,5] nonadeca-1(18),2,4,14,1 6-pentaen-13-one]
N#CC1CCCCc2ccc(F)c(c2)C(O)(C(F)(F)F)C2=NN=C(O2)c2nc1c(C(F)(F)F)cc2N (single isomer, unassigned) [Compound 68, 20-amino-8-fluoro-6-hydroxy-6,18-bis(trifluoromethyl)-23-oxa-3,4,21-triazatetracyclo[15.3.1.12,5.17,11]tricosa-1(21),2,4,7,9,11(22),17,19-octaene-16-carbonitrile]
Nc1cc(C(F)(F)F)c2nc1-c1nnc(o1)[C@@](O)(C(F)(F)F)CCCCCN(c1ccccn1)C2=O [Compound 107, (6R)-17-Amino-6-hydroxy-12-(2-pyridyl)-6,15-bis (trifluoromethyl)-19-oxa-3,4,12,18-tetrazatricyclo [12.3.1.12,5] nonadeca-1(18),2,4,14,1 6-pentaen-13-one]
Nc1cc(C(F)(F)F)c2nc1-c1nnc(o1)[C@@](O)(C(F)(F)F)CCCCCN(Cc1cc(C3CCC3)ccc1F)C2=O [Compound 260, (6R)-17-amino-12-[(5-cyclobutyl-2-fluoro-phenyl)methyl]-6-hydroxy-6,15-bis(trifluoromethyl)-19-oxa-3,4,12,18-tetrazatricyclo [12.3.1.12,5] nonadeca-1(18),2,4,14,16-pentaen-13-one]
Nc1cc(C(F)(F)F)c2nc1-c1nnc(o1)[C@@](O)(C(F)(F)F)CCCCCN(Cc1ccc(OC(F)(F)F)c(Cl)c1)C2=O [Compound 153, (6R)-17-amino-12-[[3-chloro-4-(trifluoromethoxy)phenyl]methyl]-6-hydroxy-6,15-bis(trifluoromethyl)-19-oxa-3,4,12,18-tetrazatricyclo [12.3.1.12,5] nonadeca-1(18),2,4,14,1 6-pentaen-13-one]
CC1(C)CCCCC[C@@](O)(C(F)(F)F)C2=NN=C(O2)c2nc(c(C(F)(F)F)cc2N)C1=O [Compound 46, (6S)-17-amino-6-hydroxy-12,12-dimethyl-6,15-bis(trifluoromethyl)-19-oxa-3,4,18-triazatricyclo[12.3.1.12,5]nonadeca-1(18),2,4,14,16-pentaen-13-one]
CC1(C)CCCC[C@](O)(C(F)(F)F)C2=NN=C(O2)c2nc(c(C(F)(F)F)cc2N)C(=O)N1 [Compound 174, (6R)-17-amino-6-hydroxy-11,11-dimethyl-6,15-bis (trifluoromethyl)-19-oxa-3,4,12,18-tetrazatricyclo [12.3.1.12,5] nonadeca-1(18),2,4,14,1 6-pentaen-13-one]
Nc1cc(C(F)(F)F)c2nc1-c1nnc(o1)[C@@](O)(C(F)(F)F)CCCCCN(CC1CC(F)(F)C1)C2=O [Compound 243, (6R)-17-amino-12-[(3,3-difluorocyclobutyl)methyl]-6-hydroxy-6,15-bis(trifluoromethyl)-19-oxa-3,4,12,18-tetrazatricyclo [12.3.1.12,5] nonadeca-1(18),2,4,14,16-pentaen-13-one]
CC(C)(C)C12CC(N3CCCCC[C@](O)(C(F)(F)F)c4nnc(o4)-c4nc(c(C(F)(F)F)cc4N)C3=O)(C1)C2 [Compound 123, (6R)-17-Amino-12-(3-tert-butyl-1-bicyclo[1.1.1]pentanyl)-6-hydroxy-6,15-bis (trifluoromethyl)-19-oxa-3,4,12,18-tetrazatricyclo [12.3.1.12,5] nonadeca-1(18),2,4,14,1 6-pentaen-13-one]
Nc1cc(C(F)(F)F)c2nc1-c1nnc(o1)[C@@](O)(C(F)(F)F)CCCCCN(Cc1ccc(F)c(C3CCC3)c1)C2=O [Compound 256, (6R)-17-amino-12-[(3-cyclobutyl-4-fluoro-phenyl)methyl]-6-hydroxy-6,15-bis(trifluoromethyl)-19-oxa-3,4,12,18-tetrazatricyclo [12.3.1.12,5] nonadeca-1(18),2,4,14,16-pentaen-13-one]
COc1cc(CN2CCCCC[C@](O)(C(F)(F)F)C3=NN=C(O3)c3nc(c(C(F)(F)F)cc3N)C2=O)ccc1F [Compound 163, (6R)-17-amino-12-[(4-fluoro-3-methoxy-phenyl)methyl]-6-hydroxy-6,15-bis (trifluoromethyl)-19-oxa-3,4,12,18-tetrazatricyclo [12.3.1.12,5] nonadeca-1(18),2,4,14,1 6-pentaen-13-one]
Nc1cc(C(F)(F)F)c2nc1-c1nnc(o1)[C@@](O)(C(F)(F)F)CCCCCN(Cc1cccc(OCC3(C(F)(F)F)CC3)c1)C2=O [Compound 223, (6R)-17-amino-6-hydroxy-6,15-bis(trifluoromethyl)-12-[[3-[[1-(trifluoromethyl)cyclopropyl]methoxy]phenyl]methyl]-19-oxa-3,4,12,18-tetrazatricyclo [12.3.1.12,5] nonadeca-1(18),2,4,14,16-pentaen-13-one]

EC50, > 1 µM:
Nc1cc(C(F)(F)F)c2nc1-c1nnc(o1)[C@](O)(C(F)(F)F)CCCCCCC2=O (single isomer, unassigned) [Compound 7]
Nc1cc(C(F)(F)F)c2nc1-c1nnc(o1)C(O)(C(F)(F)F)CCCCCc1ccccc1-2 (single isomer, unassigned) [Compound 5, 21-amino-6,19-bis(trifluoromethyl)-23-oxa-3,4,22-triazatetracyclo[16.3.1.12,5.012,17]tricosa-1(22),2,4,12,14,16,18,20-octaen-6-ol]
Nc1cc(C(F)(F)F)c2nc1-c1nnc(o1)C(O)(C(F)(F)F)c1cc(ccc1F)C=CCCC2=O (single isomer, unassigned) [Compound 59, 20-amino-8-fluoro-6-hydroxy-6,18-bis(trifluoromethyl)-23-oxa-3,4,21-triazatetracyclo[15.3.1.12,5.17,11]tricosa-1(21),2,4,7(22),8,10,12,17,19-nonaen-16-one]
Nc1cc(C(F)(F)F)c2nc1-c1nnc(o1)C(O)(C(F)(F)F)CCCCCN(C(=O)C1CCC1)C2 (single isomer, unassigned) [Compound 23, [17-amino-6-hydroxy-6,15-bis(trifluoromethyl)-19-oxa-3,4,12,18-tetrazatricyclo[12.3.1.12,5]nonadeca-1(18),2,4,14,16-pentaen-12-yl]-cyclobutyl-methanone]
Nc1cc(C(F)(F)F)c2nc1-c1nnc(o1)[C@@](O)(C(F)(F)F)CCCCCN(Cc1cc[nH]n1)C2=O [Compound 112, (6R)-17-Amino-6-hydroxy-12-(1H-pyrazol-3-ylmethyl)-6,15-bis (trifluoromethyl)-19-oxa-3,4,12,18-tetrazatricyclo [12.3.1.12,5] nonadeca-1(18),2,4,14,1 6-pentaen-13-one]
